# Molecular target: T1, Kinase A and Spo0F (Bacillus subtilis, UniProt P16497)
# T1 construct: made in house; host or cells: recombinant E. coli
# T1 sequence (P16497 1-606): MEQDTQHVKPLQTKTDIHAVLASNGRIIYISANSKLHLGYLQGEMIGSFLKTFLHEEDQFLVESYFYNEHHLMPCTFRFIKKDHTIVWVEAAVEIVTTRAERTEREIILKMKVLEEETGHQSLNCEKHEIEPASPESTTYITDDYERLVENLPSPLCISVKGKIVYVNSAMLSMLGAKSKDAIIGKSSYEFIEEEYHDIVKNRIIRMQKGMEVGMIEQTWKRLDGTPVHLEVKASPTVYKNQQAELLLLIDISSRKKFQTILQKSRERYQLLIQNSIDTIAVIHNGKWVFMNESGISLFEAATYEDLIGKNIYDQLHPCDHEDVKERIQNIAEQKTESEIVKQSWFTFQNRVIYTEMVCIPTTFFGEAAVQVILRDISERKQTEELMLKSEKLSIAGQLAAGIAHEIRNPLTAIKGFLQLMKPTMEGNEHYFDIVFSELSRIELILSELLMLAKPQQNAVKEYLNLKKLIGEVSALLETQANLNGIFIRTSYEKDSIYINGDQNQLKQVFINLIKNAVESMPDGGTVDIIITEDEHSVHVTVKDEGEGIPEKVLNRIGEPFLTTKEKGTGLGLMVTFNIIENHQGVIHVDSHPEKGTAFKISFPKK
# Assay: Autophosphorylation of Kinase A and Transphosphorylation of Spo0F Assay (HPK in vitro assay)
# Type: biochemical
# Settings: Table 2, KinA/Spo0F phosphorylation, in µM
# Method: Autophosphorylation of Kinase A and Transphosphorylation of Spo0F Assay
# To study the effect of the compounds of the present invention on the signal transduction process in bacteria, the inhibiting effect of the compounds on the sporulation operon proteins Kinase A and Spo0F was examined. Specifically, the inhibition of autophosphorylation of Kinase A and the transphosphorylation of Spo0F was determined in the following assays. The Spo0F response regulator is the primary substrate for phosphorylation by the protein kinase, Kin A, involved in the sporulation process in bacteria. See D. Burbulys, K. A. Trach, J. A. Hoch, Cell, 64, 545-552 (1991). Spo0F and KinA were prepared from recombinant E. coli overexpressing the proteins (J. Cavanagh et al, Amino Acids, 6, 131-140 (1994) and references therein).
# The following stock reagents were either prepared and used promptly or stored at the indicated temperature:
# 8×Salts: 2 M KCl (5 mL), 1 M MgCl2 (800 mL), 1 M CaCl2 (100 mL), 10 mg/mL phenylmethylsulfonyl fluoride (200 mL), 1 M dithioreitol (50 mL), 0.25 M Na2 EDTA (32 mL) and H2 O 3.82 mL (-20° C.)
# 5×Loading Dye: 0.5M TRIS-HCl, pH 6.8 (7.5 mL), 10% SDS (2 mL) 0.1% bromophenol blue (0.5 mL), 100% glycerol (3 mL) and 12.5 M 2-mercaptoethanol (0.3 mL)
# 1-1.3 mg/mL KinA: 15 mM TRIS-HCl, pH 8.0, 6 mM KCl; 4 mM 2-mercaptoethanol;40% glycerol (-20° C.)
# 1 mg/mL Spo0F: 17.5 mM TRIS-HCl, pH 8.0; 0.7 mM KCl; 0.7 mM MgCl2; 0.7 mM CaCl2; 5 mM 2-mercaptoethanol; 30% glycerol (-20° C.)
# 5% Stacking Gel: 40% 29:1 acrylamide:bis acrylamide (1.25 mL), 0.5 M TRIS-HCl, pH 6.8 (2.5 mL), 10% SDS (0.1 mL), D-H2 O (6.15 mL) 10% ammonium persulfate (100 mL) and TEMED (25 mL)
# SDS Running Buffer: TRIS-BASE (3.02 g), glycine (14.4 g), SDS (1 g), D-H2 O (to 1 L)
# The reaction mixture was prepared from 8×Salts (87 μL), 1M TRIS, pH 8 (118 μL), 50% glycerol (63 μL), Spo0F (14.1 μL) and KinA (7.0 μL). Microcentrifuge tubes were charged with the reaction mixture (18.5 μL) and a 1.0 mM solution of the test compound in 5% DMSO (18.5 μL), and incubated for 15 min on ice. 100 mM ATP solution (3.0 μl, containing 625 μCi [^32 P]ATP) was added, and the mixture left for 10 minutes at room temperature. The reaction was quenched with 5× loading dye (10 μL per tube) and the samples were loaded on a prepared 5% Stacking Gel, or stored on dry ice until ready for use. The prepared wells were filled with SDS Running Buffer, samples were loaded into the wells, and 80 volts were applied to the gel until the dye front reached the bottom of the stacking gel. The voltage was then increased to 250 volts until electrophoresis was complete. Radioactive bands in the gel corresponding to phosphorylated KinA and Spo0F were imaged and quantitated with a phosphoimager.
# If either enzyme was inhibited (as evidenced by the absence of labelled protein in the developed gel), an IC50 was calculated by running the assay with a range of inhibitor concentrations from 1 to 500 μM. After electrophoresis of the reaction mixtures, percent inhibition was determined by measuring the concentration of radioactive phosphorus with a phosphoimager and calculating the values using a software program (BioRad Molecular Analyst).
row,IC50,SMILES
1,11.4,N=C(N)c1ccc2[nH]c(-c3ccc(Oc4ccc(Cl)c(Cl)c4)cc3)nc2c1 [Example 60]
2,58,N=C(N)c1cc([N+](=O)[O-])c2[nH]c(-c3ccc(Oc4ccccc4)cc3)nc2c1 [Example 61]
3,19,N=C(N)c1cc(N)c2[nH]c(-c3ccc(Oc4ccccc4)cc3)nc2c1 [Example 62]

# Same assay, conditions: Table 3, KinA/Spo0F phosphorylation, read-out: IC50
row,IC50 [µM],SMILES
1,53,N=C(N)c1ccc2[nH]c(-c3cccc(Oc4ccccc4)c3)nc2c1 [Example 63]
2,48,N=C(N)c1ccc2[nH]c(-c3cccc(Oc4cccc(C(F)(F)F)c4)c3)nc2c1 [Example 64]
3,33,Cc1ccc(Oc2cccc(-c3nc4cc(C(=N)N)ccc4[nH]3)c2)cc1 [Example 65]
4,32,N=C(N)c1ccc2[nH]c(-c3cccc(Oc4cc(Cl)cc(Cl)c4)c3)nc2c1 [Example 66]
5,32,N=C(N)c1ccc2[nH]c(-c3cccc(Oc4ccc(Cl)c(Cl)c4)c3)nc2c1 [Example 67]
6,31.6,CC(C)(C)c1ccc(Oc2cccc(-c3nc4cc(C(=N)N)ccc4[nH]3)c2)cc1 [Example 68]
7,28,N=C(N)c1ccc2[nH]c(-c3cccc(Oc4ccc(Cl)cc4)c3)nc2c1 [Example 69]
8,69.2,COc1ccc(Oc2cccc(-c3nc4cc(C(=N)N)ccc4[nH]3)c2)cc1 [Example 70]

# Same assay, conditions: Table 4, KinA/Spo0F phosphorylation, read-out: IC50
row,IC50 [µM],SMILES
1,17.3,N=C(N)c1ccc2nc(-c3ccc4oc5ccccc5c4c3)[nH]c2c1 [Example 71]
2,64.3,N=C(N)c1ccc2nc(-c3ccc4c(c3)Cc3ccccc3-4)[nH]c2c1 [Example 72]
3,22.0,CCn1c2ccccc2c2ccc(-c3nc4ccc(C(=N)N)cc4[nH]3)cc21 [Example 73]
4,120,N=C(N)c1ccc2nc(-c3ccc4ccccc4c3)[nH]c2c1 [Example 74]
5,127,N=C(N)c1ccc2nc(-c3ccc4ccccc4c3O)[nH]c2c1 [Example 75]
6,85,N=C(N)c1ccc2nc(-c3cc4c5c(c3)CCCN5CCC4)[nH]c2c1 [Example 76]
7,18.5,N=C(N)c1ccc2nc(-c3cc4c5c(c3O)CCCN5CCC4)[nH]c2c1 [Example 77]
8,114,CN1c2ccccc2C(C)(C)C12C=Cc1cc(-c3nc4ccc(C(=N)N)cc4[nH]3)ccc1O2 (centres unmarked) [Example 78]

# Same assay, conditions: Table 5, KinA/Spo0F phosphorylation, in µM
row,IC50,SMILES
1,26,N=C(N)c1ccc2nc(-c3ccc(N4CCN(c5ccccc5)CC4)cc3)[nH]c2c1 [Example 81]
2,22,N=C(N)Cn1c(-c2ccc(N(c3ccccc3)c3ccccc3)cc2)nc2ccc(C(=N)N)cc21 [Example 82]

# The remaining lines, values behind:
row,SMILES,IC50
1,N=C(N)c1ccc(Oc2ccc(-c3nc4ccccc4[nH]3)cc2)cc1 [Example 79],241
2,N=C(N)c1ccc2nc(-c3ccc(Oc4ccc5[nH]cnc5c4)cc3)[nH]c2c1 [Example 80],94

# Same assay, conditions: Table 6, KinA/Spo0F phosphorylation, in µM
row,IC50,SMILES
1,112.4,c1ccc(Oc2ccc(-c3nc4ccc(C5=NCCN5)cc4[nH]3)cc2)cc1 [Example 83]
2,32.3,c1ccc(Oc2ccc(-c3nc4ccc(-c5nc6ccccc6[nH]5)cc4[nH]3)cc2)cc1 [Example 84]
3,4,CC(C)(C)c1cc(-c2nc3ccc(C4=NCCN4)cc3[nH]2)c(O)c(C(C)(C)C)c1 [Example 85]
4,32,CC(C)(C)c1cc(-c2nc3ccc(C4=NCCCN4)cc3[nH]2)c(O)c(C(C)(C)C)c1 [Example 86]
5,29,CC(C)(C)c1cc(-c2nc3ccc(C4=NCCCCN4)cc3[nH]2)c(O)c(C(C)(C)C)c1 [Example 87]
6,12,CC1(C)CN=C(c2ccc3nc(-c4cc(C(C)(C)C)cc(C(C)(C)C)c4O)[nH]c3c2)N1 [Example 88]
7,152,CC(C)(C)c1cc(-c2nc3ccc(N)cc3[nH]2)c(O)c(C(C)(C)C)c1 [Example 90]
8,4,CC(C)(C)c1cc(-c2nc3ccc(CN)cc3[nH]2)c(O)c(C(C)(C)C)c1 [Example 91]

# Same assay, conditions: Table 6, KinA/Spo0F phosphorylation, read-out: IC50
row,SMILES,IC50 [µM]
1,CC(C)(C)c1cc(-c2nc3ccc(C(=O)O)cc3[nH]2)c(O)c(C(C)(C)C)c1 [Example 89],86
